Assay results from patent publication US20240383954A1, “PEPTIDE INHIBITORS OF INTERLEUKIN-23 RECEPTOR AND THEIR USE TO TREAT INFLAMMATORY DISEASES” (Janssen Biotech, Inc., priority 2020, published 2024).
Positions of bridges follow the written chain, without caps; N, C: chain ends. Non-standard residues stand in square brackets, D forms with d. Residues, ends and D or L forms follow the SMILES beside them. *: point of attachment. Trp(7-Me) = Cc1cccc2c(C[C@H](N)C(=O)O)c[nH]c12; Phe(3R-Me) = C[C@H](c1ccccc1)[C@H](N)C(=O)O; Phe(4-NH2) = Nc1ccc(C[C@H](N)C(=O)O)cc1; 2Nal = N[C@@H](Cc1ccc2ccccc2c1)C(=O)O; AEF = NCCOc1ccc(C[C@H](N)C(=O)O)cc1; αMeF = C[C@](N)(Cc1ccccc1)C(=O)O; Cit = NC(=O)NCCC[C@H](N)C(=O)O; αMeL = CC(C)C[C@](C)(N)C(=O)O; Pen = CC(C)(S)[C@H](N)C(=O)O; Ac5c = NC1(C(=O)O)CCCC1; Thp = NC1(C(=O)O)CCOCC1; Ac3c = NC1(C(=O)O)CC1; Propionyl = CCC(=O)*; X6 = c1cc(N*)n[nH]1

Target: IL-23R (Homo sapiens, UniProt Q5VWK5)
Test: cell-based
Details: PBMC pSTAT3 IC50 (nM), PBMCs from healthy donors, IL-23 5 ng/mL, 30 minutes, phosphorylated STAT3
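Note: cryopreserved PBMCs stimulated at 37 °C in 5% CO2, then lysed, with phosphorylated STAT3 quantified in lysates using a phospho-STAT panel kit.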

Chain of IL-23R (Q5VWK5 24-629): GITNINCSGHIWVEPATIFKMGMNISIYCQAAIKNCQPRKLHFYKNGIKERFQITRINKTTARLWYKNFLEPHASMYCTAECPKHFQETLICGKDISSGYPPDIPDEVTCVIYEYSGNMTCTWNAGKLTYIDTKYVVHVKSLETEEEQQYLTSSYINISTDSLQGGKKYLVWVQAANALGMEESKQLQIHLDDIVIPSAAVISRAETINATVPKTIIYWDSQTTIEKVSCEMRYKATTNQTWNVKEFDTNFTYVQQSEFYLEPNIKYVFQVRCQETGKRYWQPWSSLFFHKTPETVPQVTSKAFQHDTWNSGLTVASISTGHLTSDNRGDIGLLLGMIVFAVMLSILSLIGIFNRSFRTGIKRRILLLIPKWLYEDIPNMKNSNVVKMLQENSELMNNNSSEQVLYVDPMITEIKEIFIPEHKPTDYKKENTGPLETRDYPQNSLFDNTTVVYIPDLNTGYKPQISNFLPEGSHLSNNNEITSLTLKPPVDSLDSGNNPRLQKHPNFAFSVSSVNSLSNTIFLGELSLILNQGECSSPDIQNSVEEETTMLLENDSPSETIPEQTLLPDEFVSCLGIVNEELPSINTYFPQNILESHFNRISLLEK
Method: Cryopreserved peripheral blood mononuclear cells (PBMCs) from healthy donors were thawed and washed twice in ImmunoCult-XF T cell expansion medium (XF-TCEM) supplemented with CTL anti-aggregate wash. […] The cells were stimulated with cytokine for 30 minutes at 37° C. in 5% CO2, transferred onto ice for 10 minutes, and lysed. Cell lysates were stored at −80° C. until phosphorylated STAT3 was measured using the phospho-STAT panel kit (Meso Scale Discovery, K15202D).

| SMILES | IC50 [nM] |
| --- | --- |
| CC(=O)NCCCC[C@@H]1NC(=O)[C@H](Cc2c[nH]c3c(C)cccc23)NC(=O)[C@H]([C@@H](C)O)NC(=O)[C@H](CC(N)=O)NC(=O)[C@@H](NC(=O)[C@@H](CCCNC(=N)N)NC(C)=O)C(C)(C)SSC(C)(C)[C@@H](C(=O)N[C@@H](Cc2ccc(OCCN)cc2)C(=O)N[C@@H](Cc2ccc3ccccc3c2)C(=O)NC2(C(=O)N[C@@H](CCC(=O)O)C(=O)N[C@@H](CC(N)=O)C(=O)N[C@@](C)(Cc3ccccc3)C(N)=O)CCCC2)NC1=O [Compound 94, Ac-[(D)Arg]-[Pen]-N-T-[W(7-Me)]-[Lys(Ac)]-[Pen]-Phe[4-(2-aminoethoxy)]-[2-Nal]-[Acvc]-E-N-[a-MePhe]-NH2] (Ac-[dR][Pen]NT[Trp(7-Me)]K(Ac)[Pen][AEF][2Nal][Ac5c]EN[αMeF]-NH2; disulfide 2-7) | 12 |
| CC(=O)NCCCC[C@@H]1NC(=O)[C@H](Cc2c[nH]c3c(C)cccc23)NC(=O)[C@H]([C@@H](C)O)NC(=O)[C@H](CC(N)=O)NC(=O)[C@@H](N)C(C)(C)SSC(C)(C)[C@@H](C(=O)N[C@@H](Cc2ccc(OCCNC(=O)OC(C)(C)C)cc2)C(=O)N[C@@H](Cc2ccc3ccccc3c2)C(=O)N[C@@](C)(CCCCNC(=O)OC(C)(C)C)C(=O)N[C@@H](CCCCNC(C)=O)C(=O)N[C@@H](CC(N)=O)C(=O)N[C@@](C)(Cc2ccccc2)C(N)=O)NC1=O [Compound 304, NH2--Pen-N-T-7MeW-K(Ac)-Pen-AEF(Boc)-2Nal-aMeK(Boc)-K(Ac)-N-aMePhe-CONH2] | 28 |
| CC(=O)N[C@H](CCCNC(=N)N)C(=O)N[C@@H]1C(=O)N[C@@H](CCC(N)=O)C(=O)N[C@@H]([C@@H](C)O)C(=O)N[C@@H](Cc2c[nH]c3ccccc23)C(=O)N[C@@H](CCC(N)=O)C(=O)N[C@H](C(=O)N[C@@H](Cc2ccc(OCCN)cc2)C(=O)N[C@@H](Cc2ccc3ccccc3c2)C(=O)NC2(C(=O)N[C@@H](CCC(=O)O)C(=O)N[C@@H](CC(N)=O)C(=O)N[C@@H](CC(=O)Nc3cc[nH]n3)C(N)=O)CCOCC2)C(C)(C)SSC1(C)C [Compound 133, Ac-[(D)Arg]-[Pen]-Q-T-W-Q-[Pen]-Phe[4-(2-aminoethoxy)]-[2-Nal]-[THP]-E-N-[(N-(3-Pyz))Asn]-NH2] (Ac-[dR][Pen]QTWQ[Pen][AEF][2Nal][Thp]END(X6)-NH2; disulfide 2-7) | 21 |
| CC(=O)N[C@H](CCCNC(=N)N)C(=O)N[C@H]1CCSC[C@@H](C(=O)N[C@@H](Cc2ccc(OCCN)cc2)C(=O)N[C@@H](Cc2ccc3ccccc3c2)C(=O)NC2(C(=O)N[C@@](C)(CCC(=O)O)C(=O)N[C@@H](CC(N)=O)C(=O)N[C@@](C)(Cc3ccc(F)cc3)C(N)=O)CCOCC2)NC(=O)[C@H](CCC(N)=O)NC(=O)[C@H](Cc2c[nH]c3ccccc23)NC(=O)[C@H]([C@@H](C)O)NC(=O)[C@H](CCC(N)=O)NC1=O [Compound 36, Ac-[(D)Arg]-[Abu]-Q-T-W-Q-[Cys]-Phe[4-(2-aminoethoxy)]-[2-Nal]-[THP]-[aMeGlu]-N-[aMe(4-F)Phe]-NH2] | 14 |
| CC(=O)NCCCC[C@H](NC(=O)[C@](C)(CCCCN)NC(=O)[C@H](Cc1ccc2ccccc2c1)NC(=O)[C@H](Cc1ccc(OCCN)cc1)NC(=O)[C@H]1NC(=O)[C@H](CCC(N)=O)NC(=O)[C@H](Cc2c[nH]c3c(C)cccc23)NC(=O)[C@H]([C@@H](C)O)NC(=O)[C@H](CC(N)=O)NC(=O)[C@@H](NC(C)=O)C(C)(C)SSC1(C)C)C(=O)N[C@@H](CC(N)=O)C(=O)NC1(C(N)=O)CCOCC1 [Compound 87, Ac-[Pen]-N-T-[W(7-Me)]-Q-[Pen]-Phe[4-(2-aminoethoxy)]-[2-Nal]-[a-MeLys]-[Lys(Ac)]-N-[THP]-NH2] | 3.6 |
| CC(=O)N[C@H](CCCNC(=N)N)C(=O)N[C@@H]1C(=O)N[C@@H](CCC(N)=O)C(=O)N[C@@H]([C@@H](C)O)C(=O)N[C@@H](Cc2c[nH]c3ccccc23)C(=O)N[C@@H](CCC(N)=O)C(=O)N[C@H](C(=O)N[C@@H](Cc2ccc(OCCN)cc2)C(=O)N[C@@H](Cc2ccc3ccccc3c2)C(=O)NC2(C(=O)N[C@@H](CCCCNC(=O)C3CC3)C(=O)N[C@@H](CC(N)=O)C(=O)NC3(C(N)=O)CCOCC3)CCOCC2)C(C)(C)SSC1(C)C [Compound 51, Ac-[(D)Arg]-[Pen]-Q-T-W-Q-[Pen]-Phe[4-(2-aminoethoxy)]-[2-Nal]-[THP]-[Lys(COcPr)]-N-[THP]-NH2] | 27 |
| CC(=O)NCCCC[C@@H]1NC(=O)[C@H](Cc2c[nH]c3c(C)cccc23)NC(=O)[C@H]([C@@H](C)O)NC(=O)[C@H](CC(N)=O)NC(=O)[C@@H](NC(C)=O)C(C)(C)SSC(C)(C)[C@@H](C(=O)N[C@@H](Cc2ccc(OCCN)cc2)C(=O)N[C@@H](Cc2ccc3ccccc3c2)C(=O)NC2(C(=O)N[C@@H](CCCCNC(=O)C(F)(F)F)C(=O)N[C@@H](CC(N)=O)C(=O)NC3(C(N)=O)CCOCC3)CCOCC2)NC1=O [Compound 140, Ac-[Pen]-N-T-[W(7-Me)]-[Lys(Ac)]-[Pen]-Phe[4-(2-aminoethoxy)]-[2-Nal]-[THP]-[Lys(COCF3)]-N-[THP]-NH2] | 2.6 |
| CC(=O)N[C@H](CCCNC(=N)N)C(=O)N[C@@H]1C(=O)N[C@@H](CC(N)=O)C(=O)N[C@@H]([C@@H](C)O)C(=O)N[C@@H](Cc2c[nH]c3c(C)cccc23)C(=O)N[C@@H](CCC(N)=O)C(=O)N[C@H](C(=O)N[C@@H](Cc2ccc(OCCN)cc2)C(=O)N[C@@H](Cc2ccc3ccccc3c2)C(=O)NC2(C(=O)N[C@@H](CCC(=O)O)C(=O)N[C@@H](CC(N)=O)C(=O)NC3(C(N)=O)CCOCC3)CCCC2)C(C)(C)SSC1(C)C [Compound 99, Ac-[(D)Arg]-[Pen]-N-T-[W(7-Me)]-Q-[Pen]-Phe[4-(2-aminoethoxy)]-[2-Nal]-[Acvc]-E-N-[THP]-NH2] (Ac-[dR][Pen]NT[Trp(7-Me)]Q[Pen][AEF][2Nal][Ac5c]EN[Thp]-NH2; disulfide 2-7) | 4.2 |
| CC(=O)NCCCC[C@@H]1NC(=O)[C@H](Cc2c[nH]c3c(C)cccc23)NC(=O)[C@H]([C@@H](C)O)NC(=O)[C@H](CC(N)=O)NC(=O)[C@@H](NC(=O)[C@@H](CCCNC(=N)N)NC(C)=O)C(C)(C)SSC(C)(C)[C@@H](C(=O)N[C@@H](Cc2ccc(OCCN)cc2)C(=O)N[C@@H](Cc2ccc3ccccc3c2)C(=O)NC2(C(=O)N[C@@H](CCC(=O)O)C(=O)N[C@@H](CC(N)=O)C(=O)N[C@H](C(N)=O)[C@H](C)c3ccccc3)CCOCC2)NC1=O [Compound 313, MeCO-r-Pen-N-T-7MeTrp-K(Ac)-Pen-AEF-2Nal-THP-E-N-bMePhe(S,R)---CONH2] (Ac-[dR][Pen]NT[Trp(7-Me)]K(Ac)[Pen][AEF][2Nal][Thp]EN[Phe(3R-Me)]-NH2; disulfide 2-7) | 21 |
| CC(=O)NCCCC[C@@H]1NC(=O)[C@H](Cc2c[nH]c3c(C)cccc23)NC(=O)[C@H]([C@@H](C)O)NC(=O)[C@H](CC(N)=O)NC(=O)[C@@H](NC(C)=O)C(C)(C)SSC(C)(C)[C@@H](C(=O)N[C@@H](Cc2ccc(OCCN)cc2)C(=O)N[C@@H](Cc2ccc3ccccc3c2)C(=O)N[C@@](C)(CCCCN)C(=O)N[C@@H](CCCCNC(C)=O)C(=O)N[C@@H](CC(N)=O)C(=O)N[C@@](C)(Cc2ccccc2)C(=O)N[C@H](Cc2ccc(O)cc2)C(N)=O)NC1=O [Compound 100, Ac-[Pen]-N-T-[W(7-Me)]-[Lys(Ac)]-[Pen]-Phe[4-(2-aminoethoxy)]-[2-Nal]-[a-MeLys]-[Lys(Ac)]-N-[a-MePhe]-[(D)Tyr]-NH2] | 21 |
| CC(=O)NCCCC[C@H](NC(=O)[C@](C)(CC(C)C)NC(=O)[C@H](Cc1ccc2ccccc2c1)NC(=O)[C@H](Cc1ccc(OCCN)cc1)NC(=O)[C@H]1NC(=O)[C@H](CCCNC(N)=O)NC(=O)[C@H](Cc2c[nH]c3c(C)cccc23)NC(=O)[C@H]([C@@H](C)O)NC(=O)[C@H](CC(N)=O)NC(=O)[C@@H](NC(C)=O)C(C)(C)SSC1(C)C)C(=O)N[C@@H](CC(N)=O)C(=O)N[C@@](C)(Cc1ccccc1)C(N)=O [Compound 104, Ac-[Pen]-N-T-[W(7-Me)]-[Cit]-[Pen]-Phe[4-(2-aminoethoxy)]-[2-Nal]-[aMeLeu]-[Lys(Ac)]-N-[a-MePhe]-NH2] (Ac-[Pen]NT[Trp(7-Me)][Cit][Pen][AEF][2Nal][αMeL]K(Ac)N[αMeF]-NH2; disulfide 1-6) | 8.2 |
| CCC(=O)N[C@H](CCCNC(=N)N)C(=O)N[C@@H]1C(=O)N[C@@H](CCC(N)=O)C(=O)N[C@@H]([C@@H](C)O)C(=O)N[C@@H](Cc2c[nH]c3ccccc23)C(=O)N[C@@H](CCC(N)=O)C(=O)N[C@H](C(=O)N[C@@H](Cc2ccc(OCCN)cc2)C(=O)N[C@@H](Cc2ccc3ccccc3c2)C(=O)NC2(C(=O)N[C@@H](CCC(=O)O)C(=O)N[C@@H](CC(N)=O)C(=O)N[C@@](C)(Cc3ccccc3)C(N)=O)CCOCC2)C(C)(C)SSC1(C)C [Compound 3, [Propionic_acid]-[(D)Arg]-[Pen]-Q-T-W-Q-[Pen]-Phe[4-(2-aminoethoxy)]-[2-Nal]-[THP]-E-N-[a-MePhe]-NH2] (Propionyl-[dR][Pen]QTWQ[Pen][AEF][2Nal][Thp]EN[αMeF]-NH2; disulfide 2-7) | 40 |
| CC(=O)NCCCC[C@H](NC(=O)[C@](C)(CCCCN)NC(=O)[C@H](Cc1ccc2ccccc2c1)NC(=O)[C@H](Cc1ccc(OCCN)cc1)NC(=O)[C@H]1NC(=O)[C@H](CCCCNC(=O)C(F)(F)F)NC(=O)[C@H](Cc2c[nH]c3ccccc23)NC(=O)[C@H]([C@@H](C)O)NC(=O)[C@H](CC(N)=O)NC(=O)[C@@H](NC(C)=O)C(C)(C)SSC1(C)C)C(=O)N[C@@H](CC(N)=O)C(=O)NC1(C(N)=O)CCOCC1 [Compound 103, Ac-[Pen]-N-T-W-[Lys(COCF3)]-[Pen]-Phe[4-(2-aminoethoxy)]-[2-Nal]-[a-MeLys]-[Lys(Ac)]-N-[THP]-NH2] | 57 |
| CC(=O)Nc1ccc(C[C@@H]2NC(=O)[C@H](Cc3c[nH]c4c(C)cccc34)NC(=O)[C@H]([C@@H](C)O)NC(=O)[C@H](CC(N)=O)NC(=O)[C@@H](NC(=O)[C@@H](CCCNC(=N)N)NC(C)=O)C(C)(C)SSC(C)(C)[C@@H](C(=O)N[C@@H](Cc3ccc(OCCN)cc3)C(=O)N[C@@H](Cc3ccc4ccccc4c3)C(=O)NC3(C(=O)N[C@@H](CCC(=O)O)C(=O)N[C@@H](CC(N)=O)C(=O)NC4(C(N)=O)CCOCC4)CC3)NC2=O)cc1 [Compound 306, MeCO-r-Pen-N-T-7MeW-Paf(Ac)-Pen-AEF-2Nal-Acpx-E-N-THP---CONH2] (Ac-[dR][Pen]NT[Trp(7-Me)][Phe(4-NH2)](Ac)[Pen][AEF][2Nal][Ac3c]EN[Thp]-NH2; disulfide 2-7) | 9.6 |
